In US20160089371A1, “Combination of Kinase Inhibitors and Uses Thereof” (INTELLIKINE, LLC, priority 2013, published 2016):

What was measured:
[1] = tested on: PTEN mutant cells; test: Western blot of Akt, S6, 4EBP phosphorylation in PTEN mutant cells; format: cell-based; conditions: PTEN-mutant cell line; FIG. 12B
[2] = tested on: B cell function; test: B cell function in vivo, antibody production after TNP-Ficoll immunization; conditions: mice immunized with TNP-Ficoll; 70 mg/kg GDC0941; 30, 60 or 120 mg/kg Compound A; 7 days; FIG. 8
Description: Mice were immunized with TNP-Ficoll and treated with 1) vehicle; 2) 70 mg/kg GDC0941; 3) 30 mg/kg Compound A; 4) 60 mg/kg Compound A; or 5) 120 mg/kg Compound A for 7 days. Antibody production was measured as a percentage of control group that were treated with vehicle.

[3] = tested on: MDA-MB-361 (PI3Kα/HER2 carcinoma) tumors; test: In vivo efficacy in xenogenic mouse model of breast cancer; design: species or system nude mice; conditions: 70 mg/kg Pan-PI3K inhibitor; 60 mg/kg compound A
Description: Blood glucose was monitored periodically following administration of treatment.
Treatment of tumors (MDA-MB-361) with compounds was discontinued on Day 30. Tumors were measured every 2-5 days.

[4] = tested on: 786-O cells (non-mutated PI3Kα) tumors; test: 786-O human kidney carcinoma xenograft; format: in vivo, mice; conditions: Compound A orally 60 and 120 mg/kg; 1 mg/kg (QD) oral solution
Description: Compound A was administered orally at 60 and 120 mg/kg and compound A was administered orally as a solution at 1 mg/kg (QD). For example, a PI3Kα inhibitor is compared to a kinase inhibitor with specificity for mTor. […] FIG. 6C also provides biochemical potency data for the two compared inhibitors. PI3 Kinase α, β, γ and δ activity was assayed using the PI3 Kinase HTRF® assay kit (Millipore Corporation). Purified recombinant PI3Kα, PI3Kβ, PI3Kγ and PI3Kδ were obtained from Millipore Corporation. […] Emission ratios were converted into percent inhibitions and imported into GraphPad Prism software. […] IC50 values were determined using a nonlinear regression model available in GraphPad Prism 5.

[5] = tested on: PI3 kinase signaling pathway in MDA-MB-361, HCC-1419 and NCI-H1048 cells; test: Cellular signaling immunoblot in human tumor cell lines; format: cell-based; conditions: single agents; Compound B 5-100 nM, Compound A 1 and 3 μM; 2 or 24 hours
Description: Compound A was synthesized at Intellikine and was supplied as a stock of 10 mM in 100% DMSO and diluted in the respective cell line's growth media.
Prior to treatment, cells were plated at 2×10^5 cells/well in 12-well plates in normal growth media and grown to 80% confluence. Cells were treated for 2 or 24 hours in a CO2 incubator set to 37° C. with normal growth media containing inhibitor diluted in DMSO.
Media was aspirated, cells were washed with 1×PBS, Ice cold 1× Cell Lysis Buffer was prepared from 10× stock and 100 μM 4-(2-Aminoethyl) benzenesulfonyl fluoride hydrochloride (AEBSF) andlmM sodium orthovanadate […] was added. Cells were lysed by adding 1× Cell Lysis Buffer (100 μL per well of 12-well plate of cells). Cells incubated on ice for 20 to 30 minutes to allow complete lysis, and lysates were transferred to microcentrifuge tubes, sonicated for 10 seconds, and subjected to microcentrifugation at 14,000×g for 10 minutes at 4° C. Cleared supernatants were transferred to fresh tubes, and stored at −20° C. for Western blot analysis. […] Molecular weight markers were loaded, the gel electrophoresed at 200V for 40 minutes.
The gels were electrotransferred to nitrocellulose membranes, and incubated in blocking buffer (Tris buffered saline plus 0.5% Tween-20 (TBS/T)+5% bovine serum albumin (BSA)) for 1 hour at room temperature. […]

[6] = Steady-state blood glucose (Example 42); format: in vivo, Mus musculus; conditions: Compound B 0.3 mg/kg, Compound A 60 mg/kg, alone or combined; returned to normal within an hour of dosing
Description: Blood glucose levels were measured via a tail knick using a FreeStyle® handheld blood glucose monitor (Abbott Laboratories) at 5, 15, 30, 60, and 90 minutes after the last dose (Day 29).

Nc1nc2cc(-c3ccc4ncc(C(=O)N5CCOCC5)n4c3)ccc2o1 [Compound A]
inhibition of Akt phosphorylation at serine 473 [1]: reduced inhibition | B cell function in vivo (antibody production, percentage of vehicle control) [2]: not | tumor weight in breast cancer model (FIG. 9 left panel) [3]: reduction in tumor weight | inhibition of kinase activity and tumor growth in 786-O model (FIG. 6) [4]: decreased activity | phosphorylation of downstream targets AKT, S6 and 4E-BP1 (Western blot, FIG. 15) [5]: potently inhibited | steady-state blood glucose level after the last dose (Day 29) [6]: slight increase
